What follows are compounds tested against T1, HIF PHD2 (Homo sapiens, UniProt Q9GZT9) (assay: PHD2 inhibition assay (time resolved fluorescence, HIF-1α peptide hydroxylation / VHL detection)). Conditions: FLAG-tagged full length PHD2; 0.2 μM 2-oxoglutarate, 0.5 μM HIF-1α peptide.
T1 construct: FLAG-tagged full length PHD2; FLAG; made in house; host or cells: baculovirus-infected Sf9 cells
Assay type: biochemical
Description: To each well of a 96-well plate was added 1 μL of test compound in DMSO and 20 μl of assay buffer (50 mM Tris pH 7.4/0.01% Tween-20/0.1 mg/ml bovine serum albumin/10 μM ferrous sulfate/1 mM sodium ascorbate/20 μg/ml catalase) containing 0.15 μg/ml FLAG-tagged full length PHD2 expressed in and purified from baculovirus-infected Sf9 cells. After a 30 min preincubation at room temperature, the enzymatic reactions were initiated by the addition of 4 μL of substrates (final concentrations of 0.2 μM 2-oxoglutarate and 0.5 μM HIF-1α peptide biotinyl-DLDLEMLAPYIPMDDDFQL (SEQ ID NO:1)). After 2 hours at room temperature, the reactions were terminated and signals were developed by the addition of a 25 μL quench/detection mix to a final concentration of 1 mM ortho-phenanthroline, 0.1 mM EDTA, 0.5 nM anti-(His)6 LANCE reagent (Perkin-Elmer Life Sciences), 100 nM AF647-labeled streptavidin (Invitrogen), and 2 μg/ml (His)6-VHL complex (S. Tan (2001) Protein Expr. Purif. 21, 224-234). The ratio of time resolved fluorescence signals at 665 and 620 nm was determined; and percent inhibition was calculated relative to an uninhibited control sample run in parallel.

T1 sequence (Q9GZT9 whole entry): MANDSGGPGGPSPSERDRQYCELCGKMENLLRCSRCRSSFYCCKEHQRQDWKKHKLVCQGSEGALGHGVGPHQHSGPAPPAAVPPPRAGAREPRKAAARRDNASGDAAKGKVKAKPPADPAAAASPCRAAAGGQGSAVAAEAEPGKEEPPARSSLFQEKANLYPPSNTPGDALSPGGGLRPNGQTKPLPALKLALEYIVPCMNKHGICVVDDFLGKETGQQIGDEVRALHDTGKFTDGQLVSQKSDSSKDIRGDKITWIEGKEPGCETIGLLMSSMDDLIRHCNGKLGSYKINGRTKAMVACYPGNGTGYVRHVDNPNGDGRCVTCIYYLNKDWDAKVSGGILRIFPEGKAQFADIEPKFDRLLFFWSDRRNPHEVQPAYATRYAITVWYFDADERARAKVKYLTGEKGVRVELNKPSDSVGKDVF

Structure (SMILES)	IC50 [nM]
CCOC(=O)CCNC(=O)c1ncc(C(=O)NC(c2ccccc2)c2ccccc2)c(O)n1 [Compound 2-1, Ethyl N-({5-[(diphenylmethyl)carbamoyl]-4-hydroxypyrimidin-2-yl}carbonyl)-β-alaninate]	0.5 to 20
CCOC(=O)CNC(=O)c1ncc(C(=O)NC(c2ccccc2)c2ccccc2)c(O)n1 [Compound 2-2, Ethyl N-({5-[(diphenylmethyl)carbamoyl]-4-hydroxypyrimidin-2-yl}carbonyl)glycinate]	0.5 to 20
O=C(NCCS(=O)(=O)O)c1ncc(C(=O)NC(c2ccccc2)c2ccccc2)c(O)n1 [Compound 2-4, 2-[({5-[(diphenylmethyl)carbamoyl]-4-hydroxypyrimidin-2-yl}carbonyl)amino]ethanesulfonic acid]	0.5 to 20
CCOP(=O)(CNC(=O)c1ncc(C(=O)NC(c2ccccc2)c2ccccc2)c(O)n1)OCC [Compound 2-5, Diethyl {[({5-[(diphenylmethyl)carbamoyl]-4-hydroxypyrimidin-2-yl}carbonyl)amino]methyl}phosphonate]	20 to 100
CCOP(C)(=O)CNC(=O)c1ncc(C(=O)NC(c2ccccc2)c2ccccc2)c(O)n1 (stereo not shown) [Compound 2-6, Ethyl {[({5-[(diphenylmethyl)carbamoyl]-4-hydroxypyrimidin-2-yl}carbonyl)amino]methyl}methylphosphinate]	0.5 to 20
O=C(O)CCNC(=O)c1ncc(C(=O)NC(c2ccccc2)c2ccccc2)c(O)n1 [Compound 2-11, 3-(5-(benzhydrylcarbamoyl)-4-hydroxypyrimidine-2-carboxamido)propanoic acid]	0.5 to 20
O=C(NCP(=O)(O)O)c1ncc(C(=O)NC(c2ccccc2)c2ccccc2)c(O)n1 [Compound 2-13, {[({5-[(diphenylmethyl)carbamoyl]-4-hydroxypyrimidin-2-yl}carbonyl)amino]methyl}phosphonicacid]	20 to 100
COc1ccc(C(NC(=O)c2cnc(C(=O)NCC(=O)O)nc2O)c2ccc(OC)cc2)cc1 [Compound 2-17, 2-(5-(bis(4-methoxyphenyl)methylcarbamoyl)-4-hydroxypyrimidine-2-carboxamido)acetic acid]	0.5 to 20
O=C(O)CNC(=O)c1ncc(C(=O)NC(c2ccc(F)cc2)c2ccc(F)cc2)c(O)n1 [Compound 2-19, 2-(5-(bis(4-fluorophenyl)methylcarbamoyl)-4-hydroxypyrimidine-2-carboxamido) acetic acid]	0.5 to 20
O=C(O)CNC(=O)c1ncc(C(=O)NCc2cccc3ccccc23)c(O)n1 [Compound 2-21, 2-(4-hydroxy-5-(naphthalen-1-ylmethylcarbamoyl)pyrimidine-2-carboxamido)acetic acid]	20 to 100

Next, values leading:

IC50 [nM]	Structure (SMILES)
0.5 to 20	CP(=O)(O)c1cnn(-c2ncc(C(=O)NC(c3ccccc3)c3ccccc3)c(O)n2)c1 [Compound 1-1, 1-(5-(benzhydrylcarbamoyl)-4-hydroxypyrimidin-2-yl)-1H-pyrazol-4-yl(methyl)phosphinic acid]
0.5 to 20	COC(=O)CNC(=O)c1ncc(C(=O)NC(c2ccccc2)c2ccccc2)c(O)n1 [Compound 2-3, Methyl N-({5-[(diphenylmethyl)carbamoyl]-4-hydroxypyrimidin-2-yl}carbonyl)glycinate]
0.5 to 20	O=C(CNC(=O)c1ncc(C(=O)NC(c2ccccc2)c2ccccc2)c(O)n1)OCc1ccccc1 [Compound 2-7, Benzyl N-({5-[(diphenylmethyl)carbamoyl]-4-hydroxypyrimidin-2-yl}carbonyl)glycinate]
0.5 to 20	O=C(O)CNC(=O)c1ncc(C(=O)NC(c2ccccc2)c2ccccc2)c(O)n1 [Compound 2-12, 2-(5-(benzhydrylcarbamoyl)-4-hydroxypyrimidine-2-carboxamido)acetic acid]
0.5 to 20	CP(=O)(O)CNC(=O)c1ncc(C(=O)NC(c2ccccc2)c2ccccc2)c(O)n1 [Compound 2-14, {[({5-[(diphenylmethyl)carbamoyl]-4-hydroxypyrimidin-2-yl}carbonyl)amino]methyl}methylphosphinicacid]
0.5 to 20	CCOC(=O)CNC(=O)c1ncc(C(=O)NC(c2ccc(F)cc2)c2ccc(F)cc2)c(O)n1 [Compound 2-18, Ethyl 2-(5-(bis(4-fluorophenyl)methylcarbamoyl)-4-hydroxypyrimidine-2-carboxamido)acetate]
100 to 10000	CCOC(=O)CNC(=O)c1ncc(C(=O)NCc2cccc3ccccc23)c(O)n1 [Compound 2-20, Ethyl-2-(4-hydroxy-5-(naphthalen-1-ylmethylcarbamoyl)pyrimidine-2-carboxamido)acetate]
20 to 100	O=C(O)CNC(=O)c1ncc(C(=O)NCc2ccc3ccccc3c2)c(O)n1 [Compound 2-22, N-({4-hydroxy-5-[(naphthalen-2-ylmethyl)carbamoyl]pyrimidin-2-yl}carbonyl)glycine]
0.5 to 20	O=C(O)CNC(=O)c1ncc(NC(=O)C(c2ccccc2)c2ccccc2)c(O)n1 [Compound 3-1, 2-(5-(2,2-Diphenylacetamido)-4-hydroxypyrimidine-2-carboxamido)acetic acid]
